From patent US20260200903A1, “PHARMACEUTICAL COMPOSITION FOR AMELIORATING MALIGNANT DISEASES” (KINKI UNIVERSITY, priority 2020, published 2026)

Columns and labels:
[1] = system: Rec-1 cells (mantle cell lymphoma cell line); experiment: Cell death inducing effect on Rec-1 cells, trypan blue staining; assay type: cell-based; conditions: Rec-1 (mantle cell lymphoma), cell viability
Protocol: (§1) Rec-1 cells (mantle cell lymphoma cell line) were cultured under 5% CO2 at 37° C. The culture medium used RPMI-1640 medium with 100 μg/mL penicillin, 100 U/mL streptomycin and fetal bovine serum. Rec-1 cells were seeded into 96-well plates and incubated with each concentration of the compounds was added, and cell viability was determined by the trypan blue staining.
For controls, only 0.5% DMSO (diluted in PBS) used to dissolve the compounds was added. For each concentration, each bar line is indicated by an arrow with the sign “n, a, 1, 2, 3, 4, 5, 6, 7, 8, 9, 10, 11, 12” from left to right. The “1, 3, 5, 7, 9, 11” are omitted from the graph, but the sign “1” shall be indicated by an arrow between the signs “a” and “2”, the sign “3” between the signs “2” and “4”, and other odd numbers shall likewise be indicated by arrows between even numbers before and after.
The sign “n” is the norathyriol (formula (n)) administration group, the sign “a” is the mangiferin 8a (formula (a)) administration group, the sign “1” is the yk-7 (formula (1)) administration group, the sign “2” is the yk-8-1 (formula (2)) administration group, the sign “3” is the yk-8-3 (formula (3)) administration group, the sign “4” is the M7 (formula (4)) administration group, the sign “5” is the M9 (formula (5)) administration group, the sign “6” is the M11 (formula (6)) administration group, the sign “7” is the M12 (formula (7)) administration group, the sign “8” is the M14 (formula (8)) administration group, the sign “9” is the M15 (formula (9)) administration group, the sign “10” is the M16 (formula (10)) administration group, the sign “11” is the M18 (formula (11)) administration group, the sign “12” is the M19 (formula (12)) administration group, respectively. The IC50 values for each compound is also listed in the upper right corner of the figure.

[2] = system: MEC-1 cells (chronic lymphocytic leukemia cell line); experiment: Cell death inducing effect on MEC-1 cells, trypan blue staining; assay type: cell-based; conditions: MEC-1 (CLL), cell viability
Protocol: as §1, with “MEC-1” for “Rec-1”, “(chronic lymphocytic leukemia” for “(mantle cell lymphoma”
(§2) For controls, only 0.5% DMSO (diluted in PBS) used to dissolve the compounds was added. For each concentration, the codes “5, 6, 7, 8, 9, 10, 11, 12” and arrows are shown from left to right. The sign “5” is the M9 (formula (5)) administration group, the sign “6” is the M11 (formula (6)) administration group, the sign “7” is the M12 (formula (7)) administration group, the sign “8” is the M14 (formula (8)) administration group, the sign “9” is the M15 (formula (9)) administration group, the sign “10” is the M16 (formula (10)) administration group, the sign “11” is the M18 (formula (11)) administration group, the sign “12” is the M19 (formula (12)) administration group, respectively. The IC50 values for each compound is also listed in the upper right corner of the figure.

[3] = system: HUT-78 cells (peripheral T lymphoma cell line); experiment: Cell death inducing effect on HUT-78 cells, trypan blue staining; assay type: cell-based; conditions: HUT-78 (peripheral T-cell lymphoma), cell viability
Protocol: HUT-78 cells (peripheral T lymphoma cell line) were cultured under 5% CO2 at 37° C.
The culture medium used RPMI-1640 medium with 100 μg/mL penicillin, 100 U/mL streptomycin and fetal bovine serum. HUT-78 cells were seeded into 96-well plates and incubated with each concentration of the compounds was added, and cell viability was determined by the trypan blue staining.
as §2

[4] = system: ATN-1 cells (adult T cell leukemia cell line); experiment: Cell death inducing effect on ATN-1 cells, trypan blue staining; assay type: cell-based; conditions: ATN-1 (ATL), cell viability
Protocol: as §1, with “ATN-1” for “Rec-1”, “(adult T” for “(mantle”, “leukemia” for “lymphoma”
as §2

[5] = system: immunoglobulin free λ light chain; experiment: Immunoglobulin free λ light chain secretion in KMS-28BM cells, ELISA; assay type: cell-based, human; conditions: KMS-28BM culture supernatant after 10 days, control 48 μg/L
Protocol: The inhibitory effect of each compound on immunoglobulin free λ light chain secretion was examined by enzyme-linked immunosorbent assay (ELISA) using KMS-28BM cells.
As a control, compounds untreated KMS-28BM cells were seeded in 75 cm^2 flasks and incubated for 10 days at 37° C. and 5% CO2. KMS-28BM cells were seeded into 75 cm^2 flasks and pre-cultured for 4 h. After incubation, KMS-28BM cells were treated with […], 0.05 μM M9, 0.1 μM yk-7, 0.1 μM yk-8-3, 50 μM yk-8-1, 0.5 μM M11, […], 0.005 μM M14, 0.005 μM M15, 0.005 μM M16, 0.5 μM M18, and 0.5 μM M19 at final concentrations, and incubated for 10 days at 37° C. and 5% CO2. After 10 days of incubation, the culture supernatant was collected and immunoglobulin free λ light chain secretion was measured by ELISA. This measurement was performed using a human anti-λchain antibody ELISA kit (Funakoshi).

[6] = system: immunoglobulin free λ light chain; experiment: Immunoglobulin free λ light chain secretion in L363 cells, ELISA; assay type: cell-based, human; conditions: L363 culture supernatant after 10 days, control 145 μg/L
Protocol: The inhibitory effect of each compound on immunoglobulin free λ light chain secretion was examined by enzyme-linked immunosorbent assay (ELISA) using L363 cells.
As a control, compounds untreated L363 cells were seeded in 75 cm^2 flasks and incubated for 10 days at 37° C. and 5% CO2. L363 cells were seeded into 75 cm^2 flasks and pre-cultured for 4 h. After incubation, L363 cells were treated with 0.1 μM M7, 0.05 μM M9, 0.1 μM yk-7, 0.1 μM yk-8-3, 50 μM yk-8-1, 0.1 μM M11, 0.01 μM M12, 0.005 μM M14, 0.005 μM M15, 0.005 μM M16, 1 μM M18, and 1 μM M19 at final concentrations, and incubated for 10 days at 37° C. and 5% CO2. After 10 days of incubation, the culture supernatant was collected and immunoglobulin free λ light chain secretion was measured by ELISA. This measurement was performed using a human anti-λ chain antibody ELISA kit (Funakoshi).

1,2′,3′,4′,6-penta-O-propionylmangiferin [Compound 8a, reference compound]
IC50 [1]: 22500 nM

CCC(=O)OC[C@H]1O[C@@H](c2c(O)cc3oc4cc(O)c(O)cc4c(=O)c3c2O)[C@H](OC(=O)CC)[C@@H](OC(=O)CC)[C@@H]1OC(=O)CC [Compound M9, 2′,3′,4′,6′-tetra-O-propionylmangiferin]
IC50 ([1]; Homo sapiens, Rec1): 816 nM
IC50 ([2]; Homo sapiens, MEC1): 454 nM
IC50 ([3]; Homo sapiens, HuT78): 925 nM
IC50 ([4]; Homo sapiens): 589 nM

CCCCC(=O)OC[C@H]1O[C@@H](c2c(O)cc3oc4cc(O)c(O)cc4c(=O)c3c2OC(=O)CCCC)[C@H](OC(=O)CCCC)[C@@H](OC(=O)CCCC)[C@@H]1OC(=O)CCCC [yk-8-3, 1,2′,3′,4′,6-penta-O-valerylmangiferin]
IC50 ([1]; Homo sapiens, Rec1): 3310 nM

C=CCOc1cc(O)cc2oc3cc(O)c(O)cc3c(=O)c12 [Compound M19, 1-allyloxy-3,6,7-trihydroxy-9H-xanthen-9-one]
IC50 ([1]; Homo sapiens, Rec1): 21600 nM
IC50 ([2]; Homo sapiens, MEC1): 6890 nM
IC50 ([3]; Homo sapiens, HuT78): 6740 nM
IC50 ([4]; Homo sapiens): 4520 nM

CCCC(=O)OC[C@H]1O[C@@H](c2c(O)cc3oc4cc(O)c(O)cc4c(=O)c3c2O)[C@H](OC(=O)CCC)[C@@H](OC(=O)CCC)[C@@H]1OC(=O)CCC [Compound M14, 2′,3′,4′,6′-tetra-O-butyrylmangiferin]
IC50 ([1]; Homo sapiens, Rec1): 24 nM
IC50 ([2]; Homo sapiens, MEC1): 8 nM
IC50 ([3]; Homo sapiens, HuT78): 8 nM
IC50 ([4]; Homo sapiens): 8 nM

CCCC(=O)OC[C@H]1O[C@@H](c2c(O)cc3oc4cc(O)c(O)cc4c(=O)c3c2OC(=O)CCC)[C@H](OC(=O)CCC)[C@@H](OC(=O)CCC)[C@@H]1OC(=O)CCC [Compound M12, 1,2′,3′,4′,6-penta-O-butyrylmangiferin]
IC50 ([1]; Homo sapiens, Rec1): 951 nM
IC50 ([2]; Homo sapiens, MEC1): 12 nM
IC50 ([3]; Homo sapiens, HuT78): 21 nM
IC50 ([4]; Homo sapiens): 15 nM

O=c1c2cc(O)c(O)cc2oc2cc(O)cc(OCCO)c12 [Compound M18, 3,6,7-trihydroxy-1-(2-hydroxyethoxy)-9H-xanthen-9-one]
IC50 ([1]; Homo sapiens, Rec1): 9120 nM
IC50 ([2]; Homo sapiens, MEC1): 3120 nM
IC50 ([3]; Homo sapiens, HuT78): 4540 nM
IC50 ([4]; Homo sapiens): 2890 nM

CCCCO[C@@H]1[C@@H](OCCCC)[C@H](c2c(O)cc3oc4cc(O)c(O)cc4c(=O)c3c2O)O[C@H](COC(=O)CCC)[C@H]1OC(=O)CCC [Compound M16, 2′,3′-di-O-butyl-4′,6′-di-O-butyrylmangiferin]
IC50 ([1]; Homo sapiens, Rec1): 20 nM
IC50 ([2]; Homo sapiens, MEC1): 7 nM
IC50 ([3]; Homo sapiens, HuT78): 9 nM
IC50 ([4]; Homo sapiens): 7 nM

CCCCC(=O)OC[C@H]1O[C@@H](c2c(OC(=O)CCCC)cc3oc4cc(OC(=O)CCCC)c(OC(=O)CCCC)cc4c(=O)c3c2OC(=O)CCCC)[C@H](OC(=O)CCCC)[C@@H](OC(=O)CCCC)[C@@H]1OC(=O)CCCC [yk-8-1, 1,3,2′,3′,4′,6,6′,7-octa-O-valerylmangiferin]
IC50 [1]: > 100000 nM
λ chain secretion ([5]; compounds at 0.005-50 μM): 35 µg/L
λ chain secretion ([6]; compounds at 0.005-50 μM): 119 µg/L

O=c1c2cc(O)c(O)cc2oc2cc(O)cc(O)c12 [norathyriol, reference compound]
IC50 ([1]; Homo sapiens, Rec1): 15800 nM

CCCC(=O)OC[C@H]1O[C@@H](c2c(OC(=O)CCC)cc3oc4cc(OC(=O)CCC)c(OC(=O)CCC)cc4c(=O)c3c2OC(=O)CCC)[C@H](OC(=O)CCC)[C@@H](OC(=O)CCC)[C@@H]1OC(=O)CCC [Compound M11, 1,3,2′,3′,4′,6,6′,7-octa-O-butyrylmangiferin]
IC50 [1]: 926 nM
IC50 [2]: 575 nM
IC50 [3]: 905 nM
IC50 [4]: 1850 nM
λ chain secretion ([5]; compounds at 0.005-50 μM): 1.1 µg/L
λ chain secretion ([6]; compounds at 0.005-50 μM): 11 µg/L

CCC(=O)OC[C@H]1O[C@@H](c2c(OC(=O)CC)cc3oc4cc(OC(=O)CC)c(OC(=O)CC)cc4c(=O)c3c2OC(=O)CC)[C@H](OC(=O)CC)[C@@H](OC(=O)CC)[C@@H]1OC(=O)CC [Compound M7, 1,3,2′,3′,4′,6,6′,7-octa-O-propionylmangiferin]
IC50 ([1]; Homo sapiens, Rec1): 2250 nM
λ chain secretion ([5]; M7 group, unit printed g/L): 2.1e+06 µg/L
λ chain secretion ([6]; M7 group, unit printed g/L): 2.3e+07 µg/L

CC(C)(C)C(=O)OC[C@H]1O[C@@H](c2c(O)cc3oc4cc(O)c(O)cc4c(=O)c3c2O)[C@H](OC(=O)C(C)(C)C)[C@@H](OC(=O)C(C)(C)C)[C@@H]1OC(=O)C(C)(C)C [Compound M15, 2′,3′,4′,6′-tetra-O-pivaloylmangiferin]
IC50 ([1]; Homo sapiens, Rec1): 32 nM
IC50 ([2]; Homo sapiens, MEC1): 9 nM
IC50 ([3]; Homo sapiens, HuT78): 22 nM
IC50 ([4]; Homo sapiens): 11 nM

CCCCC(=O)OC[C@H]1O[C@@H](c2c(O)cc3oc4cc(O)c(O)cc4c(=O)c3c2O)[C@H](OC(=O)CCCC)[C@@H](OC(=O)CCCC)[C@@H]1OC(=O)CCCC [yk-7, 2′,3′,4′,6′-tetra-O-valerylmangiferin]
IC50 ([1]; Homo sapiens, Rec1): 2600 nM
